Results from publication PMC9133015 (Nature Communications, 2022).
“And” between values parts separate entries of the source, which are not always exact repeats. Equal entries are not always repeated.

Columns and labels:
PC-3 cells [1] = assay: Anti-proliferation activity assay (CCK8, 72 h); format: cell-based, human; conditions: PC-3; for Relative proliferation rate (%) / optical density: replicates
DU145 cells [2] = assay: Anti-proliferation activity assay (CCK8, 72 h); format: cell-based, human; conditions: DU145; for Relative proliferation rate (%) / optical density: replicates
PC-3 cells [3] = assay: Migration assay (transwell); format: cell-based, human; conditions: PC-3; 2 µM; replicates
22Rv1 cells [4] = assay: Migration assay (transwell); format: cell-based, human; conditions: 22Rv1, 0.5 μM, replicates
DU145 cells [5] = assay: Migration assay (transwell); format: cell-based, human; conditions: DU145, 2 μM, replicates
PC-3 cells [6] = assay: Colony formation assay; format: cell-based, human; conditions: 2 µM, replicates
22Rv1 cells [7] = assay: Invasion assay (transwell); format: cell-based, human; conditions: 22Rv1, 0.5 μM, replicates
PC-3 xenograft = assay: In vivo antitumor activity, PC-3 xenograft mouse model; set-up: species or system BALB/c nude mice; conditions: Palbociclib group; for tumor volume (Figure S10a): in mm³ (unit assumed)
RWPE-1 cells = assay: Anti-proliferation activity assay (CCK8, 72 h); format: cell-based; conditions: RWPE1; for Relative proliferation rate (%) / optical density: replicates

With CC(=O)c1c(C)c2cnc(Nc3ccc(N4CCNCC4)cn3)nc2n(C2CCCC2)c1=O [palbociclib] the “Relative proliferation rate (%) mean” value (PC-3 cells [1]; 0.078 uM) was 8.515%, the “Relative proliferation rate (%)” value (PC-3 cells [1]; 0.078 uM) was 4.665% and 8.515% and 12.3646% and the optical density (PC-3 cells [1]; 0.078 uM) was 0.981 and 0.967 and 0.971. For the same compound, the “Relative proliferation rate (%) mean” value (PC-3 cells [1]; 0.3125 uM) was 12.5396%, the “Relative proliferation rate (%)” value (PC-3 cells [1]; 0.3125 uM) was 9.427% and 12.4882% and 15.704% and the optical density (PC-3 cells [1]; 0.3125 uM) was 0.932 and 0.925 and 0.934. The “Relative proliferation rate (%) mean” value (PC-3 cells [1]; 1.25 uM) was 26.3574%, the “Relative proliferation rate (%)” value (PC-3 cells [1]; 1.25 uM) was 21.0884% and 26.3955% and 31.5884% and the optical density (PC-3 cells [1]; 1.25 uM) was 0.812 and 0.778 and 0.758. The “Relative proliferation rate (%) mean” value (PC-3 cells [1]; 5 uM) was 54.2128%, the “Relative proliferation rate (%)” value (PC-3 cells [1]; 5 uM) was 49.8542% and 54.21% and 58.574% and the optical density (PC-3 cells [1]; 5 uM) was 0.516 and 0.484 and 0.459. The “Relative proliferation rate (%) mean” value (PC-3 cells [1]; 20 uM) was 74.7111%, the “Relative proliferation rate (%)” value (PC-3 cells [1]; 20 uM) was 68.7075% and 74.7398% and 80.6859% and the optical density (PC-3 cells [1]; 20 uM) was 0.322 and 0.267 and 0.214. The “Relative proliferation rate (%) mean” value (PC-3 cells [1]; 80 uM) was 84.0905%, the “Relative proliferation rate (%)” value (PC-3 cells [1]; 80 uM) was 77.7454% and 83.8221% and 90.704% and the optical density (PC-3 cells [1]; 80 uM) was 0.229 and 0.171 and 0.103. For the same compound, the “Relative proliferation rate (%) mean” value (DU145 cells [2]; 0.0049 uM) was 4.824%, the “Relative proliferation rate (%)” value (DU145 cells [2]; 0.0049 uM) was 3.385% and 4.869% and 6.219% and the optical density (DU145 cells [2]; 0.0049 uM) was 0.999 and 1.016 and 0.95. The “Relative proliferation rate (%) mean” value (DU145 cells [2]; 0.078 uM) was 19.5052%, the “Relative proliferation rate (%)” value (DU145 cells [2]; 0.078 uM) was 16.5377% and 19.5693% and 22.4087% and the optical density (DU145 cells [2]; 0.078 uM) was 0.863 and 0.859 and 0.786. The “Relative proliferation rate (%) mean” value (DU145 cells [2]; 0.3125 uM) was 28.7249%, the “Relative proliferation rate (%)” value (DU145 cells [2]; 0.3125 uM) was 24.9516% and 28.7453% and 32.4778% and the optical density (DU145 cells [2]; 0.3125 uM) was 0.776 and 0.761 and 0.684. The “Relative proliferation rate (%) mean” value (DU145 cells [2]; 1.25 uM) was 33.0518%, the “Relative proliferation rate (%)” value (DU145 cells [2]; 1.25 uM) was 30.3675% and 33.0524% and 35.7354% and the optical density (DU145 cells [2]; 1.25 uM) was 0.720 and 0.715 and 0.651. For the same compound, the “Relative proliferation rate (%) mean” value (DU145 cells [2]; 5 uM) was 54.1864%, the “Relative proliferation rate (%)” value (DU145 cells [2]; 5 uM) was 49.8066% and 54.2135% and 58.539% and the optical density (DU145 cells [2]; 5 uM) was 0.519 and 0.489 and 0.420. The “Relative proliferation rate (%) mean” value (DU145 cells [2]; 20 uM) was 62.4741%, the “Relative proliferation rate (%)” value (DU145 cells [2]; 20 uM) was 57.4468% and 62.4532% and 67.5222% and the optical density (DU145 cells [2]; 20 uM) was 0.440 and 0.401 and 0.329. The “Relative proliferation rate (%) mean” value (DU145 cells [2]; 80 uM) was 75.0057%, the “Relative proliferation rate (%)” value (DU145 cells [2]; 80 uM) was 68.472% and 74.9064% and 81.6387% and the optical density (DU145 cells [2]; 80 uM) was 0.326 and 0.268 and 0.186. The “Cell migration (cell number)” value (PC-3 cells [3]) was 267 cell number and 257 cell number and 249 cell number, the “Cell migration (cell number)” value (22Rv1 cells [4]) was 1008 cell number and 1108 cell number and 1169 cell number and the “Cell migration (cell number)” value (DU145 cells [5]) was 4289 cell number and 4310 cell number and 4198 cell number. The “Colony formation (cell number)” value (PC-3 cells [6]) was 78 cell number and 83 cell number and 81 cell number, the “Cell invasion (cell number)” value (22Rv1 cells [7]) was 531 cell number and 470 cell number and 513 cell number and the “body weight (Figure S10b)” value (PC-3 xenograft; day 1, individual mice, in g (unit assumed)) was 20.3 and 18.7 and 20.4 and 19.9 and 20.5 and 20.1 and 19.3 and 19.6. For the same compound, the “tumor volume (Figure S10a)” value (PC-3 xenograft; day 1, individual mice) was 71.756 and 85.3384 and 76.4514 and 97.6139 and 96.2115 and 81.8398 and 86.3514 and 80.8996, the “body weight (Figure S10b)” value (PC-3 xenograft; day 3, individual mice) was 20.6 (2×) and 19.9 (2×) and 20.3 (2×) and 20.4 and 19.5 and the “tumor volume (Figure S10a)” value (PC-3 xenograft; day 3, individual mice) was 100.82 and 125.949 and 118.537 and 171.398 and 182.064 and 137.067 and 104.176 and 152.65. The “body weight (Figure S10b)” value (PC-3 xenograft; day 5, individual mice, in g (unit assumed)) was 20.8 and 20.1 and 20.9 and 20.5 and 20.7 and 20.6 and 19.4 and 20.3, the “tumor volume (Figure S10a)” value (PC-3 xenograft; day 5, individual mice) was 153.25 and 178.1 and 171.863 and 263.764 and 233.187 and 184.767 and 136.023 and 212 and the “body weight (Figure S10b)” value (PC-3 xenograft; day 7, individual mice) was 21.1 (2×) and 20.4 (3×) and 20.6 and 20.9 and 19.6. For the same compound, the “tumor volume (Figure S10a)” value (PC-3 xenograft; day 7, individual mice) was 216.949 and 236.787 and 227.898 and 326.971 and 317.909 and 235.081 and 192.895 and 301.873, the “body weight (Figure S10b)” value (PC-3 xenograft; day 9, individual mice) was 21.3 and 20.2 and 21.1 and 20.9 (2×) and 21.2 and 20.1 and 19.8 and the “tumor volume (Figure S10a)” value (PC-3 xenograft; day 9, individual mice) was 326.253 and 371.781 and 295.973 and 465.763 and 471.469 and 352.991 and 279.054 and 463.034. The “body weight (Figure S10b)” value (PC-3 xenograft; day 11, individual mice) was 21 and 20.5 and 21.4 and 21.2 and 21.5 (2×) and 20.3 and 20.1, the “tumor volume (Figure S10a)” value (PC-3 xenograft; day 11, individual mice) was 372.859 and 454.695 and 359.079 and 528.072 and 529.867 and 450.398 and 332.776 and 546.405 and the “body weight (Figure S10b)” value (PC-3 xenograft; day 13, individual mice, in g (unit assumed)) was 21.3 and 20.8 and 21.6 and 21.5 and 22 and 20.7 and 20.4 and 21.8. For the same compound, the “tumor volume (Figure S10a)” value (PC-3 xenograft; day 13, individual mice) was 420.513 and 508.608 and 384.455 and 605.279 and 564.127 and 444.148 and 375.063 and 606.531, the “body weight (Figure S10b)” value (PC-3 xenograft; day 15, individual mice) was 21.1 and 20.8 and 21.3 and 21.6 and 22.2 (2×) and 20.3 and 20.7 and the “tumor volume (Figure S10a)” value (PC-3 xenograft; day 15, individual mice) was 457.463 and 542.009 and 415.332 and 636.893 and 637.934 and 467.888 and 410.165 and 646.315. For the same compound, the “body weight (Figure S10b)” value (PC-3 xenograft; day 17, individual mice, in g (unit assumed)) was 21.5 and 21.1 and 21.7 and 22 and 22.3 and 20.6 and 21 and 22.4, the “tumor volume (Figure S10a)” value (PC-3 xenograft; day 17, individual mice) was 524.733 and 575.217 and 457.759 and 764.115 and 735.045 and 549.485 and 474.267 and 700.215 and the “body weight (Figure S10b)” value (PC-3 xenograft; day 19, individual mice, in g (unit assumed)) was 21.8 and 21.4 and 22 and 22.2 and 22.5 and 20.9 and 21.1 and 22.7. The “tumor volume (Figure S10a)” value (PC-3 xenograft; day 19, individual mice) was 535.372 and 736.543 and 494.255 and 792.24 and 789.87 and 530.997 and 470.291 and 757.507, the “body weight (Figure S10b)” value (PC-3 xenograft; day 21, individual mice) was 22.2 (2×) and 21.8 and 22.6 and 23 and 21.2 and 21.5 and 22.9 and the “tumor volume (Figure S10a)” value (PC-3 xenograft; day 21, individual mice) was 606.966 and 810.199 and 550.471 and 875.109 and 842.441 and 533.366 and 544.597 and 821.393. The “body weight (Figure S10b)” value (PC-3 xenograft; day 23, individual mice, in g (unit assumed)) was 22.4 and 21.9 and 22.5 and 22.9 and 23.5 and 21.6 and 21.7 and 23.3, the “tumor volume (Figure S10a)” value (PC-3 xenograft; day 23, individual mice) was 636.352 and 826.869 and 562.019 and 936.064 and 895.067 and 564.812 and 586.01 and 861.421 and the “body weight (Figure S10b)” value (PC-3 xenograft; day 25, individual mice, in g (unit assumed)) was 22.7 and 22.2 and 22.8 and 23.3. For the same compound, the “tumor volume (Figure S10a)” value (PC-3 xenograft; day 25, individual mice) was 672.525 and 833.997 and 554.501 and 942.419, the “tumor weight (Figure S10c)” value (PC-3 xenograft; individual mice, in g (unit assumed)) was 0.86 and 0.74 and 1.05 and 0.97 and 0.73 and 0.85 and 0.69 and 0.92 and the “Relative proliferation rate (%) mean” value (RWPE-1 cells; 0.078 uM) was 4.3459%. The “Relative proliferation rate (%)” value (RWPE-1 cells; 0.078 uM) was 2.8348% and 5.899% and 4.304%, the optical density (RWPE-1 cells; 0.078 uM) was 0.994 and 1.005 and 1.045 and the “Relative proliferation rate (%) mean” value (RWPE-1 cells; 0.3125 uM) was 4.485%. The “Relative proliferation rate (%)” value (RWPE-1 cells; 0.3125 uM) was 1.76% and 7.21% and 4.487%, the optical density (RWPE-1 cells; 0.3125 uM) was 1.005 and 0.991 and 1.043 and the “Relative proliferation rate (%) mean” value (RWPE-1 cells; 1.25 uM) was 11.7464%. The “Relative proliferation rate (%)” value (RWPE-1 cells; 1.25 uM) was 7.038% and 16.4794% and 11.7216%, the optical density (RWPE-1 cells; 1.25 uM) was 0.951 and 0.892 and 0.964 and the “Relative proliferation rate (%) mean” value (RWPE-1 cells; 5 uM) was 24.554%. The “Relative proliferation rate (%)” value (RWPE-1 cells; 5 uM) was 19.1593% and 29.8689% and 24.6337%, the optical density (RWPE-1 cells; 5 uM) was 0.827 and 0.749 and 0.823 and the “Relative proliferation rate (%) mean” value (RWPE-1 cells; 20 uM) was 55.5924%. For the same compound, the “Relative proliferation rate (%)” value (RWPE-1 cells; 20 uM) was 50.0489% and 61.1423% and 55.5861%, the optical density (RWPE-1 cells; 20 uM) was 0.511 and 0.415 and 0.485 and the “Relative proliferation rate (%) mean” value (RWPE-1 cells; 80 uM) was 75.0851%. For the same compound, the “Relative proliferation rate (%)” value (RWPE-1 cells; 80 uM) was 68.3284% and 81.8352% and 75.0916% and the optical density (RWPE-1 cells; 80 uM) was 0.324 and 0.194 and 0.272.
